# Read-outs that look alike come from different tables or passages of the source.
# Legend:
# HSV = assay: Plaque reduction assay, HSV in human embryonic fibroblast cells; assay type: cell-based, Herpes simplex virus
# Procedure: (§1) The drugs, NTZ and BA 3540, were made soluble at 10 mg/mL in dimethylsulfoxide and then diluted in media to 50 μg/mL, 5 μg/mL, 2.5 μg/mL, and 1.5 μg/mL. Human embryonic fibroblast cells were propagated in minimal essential media and supplemented with 10% fetal bovine serum. Cells were pre-treated with the two drugs at the 4 specified concentrations plus a zero control for 45 minutes. The plates were each infected with 300–400 viral particles of either HSV or HCMV for 1 hour. Drug free media was added to each plate and incubation continued for 3 days to propagate virus. At the end of three days, the supernatant from each of the plates was removed for plaque reduction assays.
# coccidia = assay: Treatment of coccidiosis in chickens (fecal float oocyst levels)
# Procedure: An initial trial involving 120 broilers (4 week old chickens) for the treatment of coccidiosis was made. Three treatment groups were used: (1) control, (2) low dose of 10 mg BA 3540/kg treatment, and (3) high dose at 50 mg BA 3540/kg treatment. The broilers were separated into six pens, […]. Fecal collection was begun to check for the presence of coccidian. The treatments were then assigned and the trial started. The treatment was added to a mash diet and fed adlib for seven days. At the end of the treatment period, new fecal collections for each treatment group were analyzed for the presence of coccidia.
# Two fecal samples were taken from each pen and a fecal float was done to check oocyst levels. Oocyst levels are considered to determine the adult coccidian present in an intestinal tract.
# A confirmatory trial was conducted with 10 seven-week-old Arbor Acres broilers. The birds were divided into two groups: control and 50 mg/kg treatment groups. The two set of cages were off the floor to prevent any potential contamination. The trial was monitored for four days and fecal floats for oocyte population were used to determine efficacy. Two fecal samples were collected from each cage.
# Sarcocystis neurona = test system: Sarcocystis neurona
# Source text: The new drug was encapsulated as in Example 4 with 27% palmitic acid and 73% of Sterotex®.
# Case 1: “Chris” is a 7 year old quarter horse gelding. […] Chris was given daily oral treatment of the new paste formulation containing lipid encapsulated 2-lauramide-5-nitrothiazole for a total of 28 dosings with 25 gm/syringe. (On day 22 to 28, the drug was not given and then resumed medication in the following week).
# Case 2: “Brooke” is an 18-year-old thoroughbred mare. […] Again the horse was given daily oral treatments with the current dose of a typical 1000 lb horse at about 50 mg/Kg body weigh or 25 gm/day.
# Case 3: “Foundation Man” is a 22-year-old Appaloosa gelding. […] Foundation Man was given daily oral treatments with the same amount of medication for 28 days.
# fungal growth = assay: Topical treatment of yellow fungal toes; assay type: in vivo, patients; details: 3% weight percent gel, 5 consecutive days then weekly for 4 weeks, after two weeks
# Procedure: In the present study, patients suffering from yellow fungal toes were treated with a 3% weight percent BA3540 in a gel formulation (gel comprises propylene glycol and 0.8% Carbopol® Gel) for 5 consecutive days by topical application of the gel formulation on the surrounding nail cuticle area, followed by weekly treatment with the gel formulation for the next 4 weeks. The thickening of the nail caused by fungal growth disappeared after two weeks, and several months later a healthy nail began to appear behind the thick nail.
# [1] = Solubility and heat stability of the bulk drug; assay type: physicochemical
# Procedure: In a typical example, an equimolar ratio (approximately 2.5 moles) of lauric acid is activated with dicyclohexyl-carbodiimide (DCC) in 500 mL of dimethylformamide. After 90 minutes, the insoluble dicyclohexylurea formed is removed by vacuum filtration. The activated lauric acid solution is then added in approximately 1:1 ratio of the nucleophile 2-amino-5 nitro-thiazole in 600 mL of methylene chloride, 60 ml of pyridine and made up to 3.5 liters with dimethylformamide. The reaction is allowed to proceed for 40–48 hours with shaking, stirring or heating at 50° C. The product formed is obtained and purified by precipitation and recrystallization in methanol and or acetone. This synthesis scheme is depicted as 2-lauramide-5-nitrothioazole and is a nice needle shaped microcrystal. […] To promote complete dissolution, the drug has to be lightly heated.
# HCMV = assay: Plaque reduction assay, HCMV in human embryonic fibroblast cells; assay type: cell-based, Human Cytomalovirus
# Procedure: as §1
# [2] = cited from earlier work
# [3] = free form; cited from earlier work
# [4] = Solubility and stability in water; assay type: physicochemical
# Source text: (§2) Acetylbenzamide nitrothiazole, otherwise known as NTZ, is an antibiotic drug useful as a treatment for protozoan parasites. […] Acetylbenzamide nitrothiazole encapsulated by Sterotex® as described in Example 1 is hydrophobic and remains afloat on the water surface.
# [5] = Degradation of acetylbenzamide nitrothiazole in 0.1 M NaCO3 (optical density); assay type: physicochemical; details: 0.1 M NaCO3, at 3 hours
# Source text: as §2
# The kinetic of degradation of acetylbenzamnide nitrothiazole in 0.1 M NaCO3 is similar to the aspirin curve of FIG. 1. […] 1, while the free drug has an optical density of 1.9. This example also illustrates the stabilizing effect of lipid encapsulation.
# [6] = Degradation of aspirin in sodium carbonate, monitored by UV spectrophotometry; assay type: physicochemical; details: 0.1 M NaCO3 (10 pH), at 27 hours
# Source text: In this example, aspirin is encapsulated in Sterotex® using the method described in Example 1. In aspirin, the deacetylated species is salicylic acid, which has a characteristic absorbency at 296 nm. The comparison of drug stability of Sterotex®/aspirin vs. aspirin was made in 0.1 M NaCO3 (10 pH) and the kinetics of degradation monitored by UV spectrophotometry. In FIG. 1, the appearance of salicylic acid is compared between aspirin encapsulated in Sterotex® and free aspirin. Aspirin slowly dissolves and is hydrolyzed to salicylic acid in a basic solution of 0.1 M NaCO3. At 27 hours, it is roughly 38% hydrolyzed. By contrast, aspirin encapsulated in Sterotex® is quite stable even at 27 hours and is only less than 2% degraded. This example illustrates the increase in drug stability provided by encapsulation in a lipid component.
smiles,measurement,setting,value
"CCCCCCCCCCCC(=O)Nc1ncc([N+](=O)[O-])s1 [BA 3540, 2-lauramide-5-nitrothiazole]",therapeutic range,HSV,5 to 10 µg/mL
same,plaques,"HSV; 1.5 μg/mL, control 110 plaques",90
same,mortality,"coccidia; broilers, 10 and 50 mg/kg in diet",no mortality
same,oocytes in fecal samples,"coccidia; confirmatory trial, 50 mg/kg, four days, seven-week-old broilers",no visible oocytes
same,samples with detectable oocyst,"coccidia; high dose group 50 mg/kg in mash diet, initial trial",1 of 4
same,amount of oocyst,"coccidia; low treatment group 10 mg/kg in mash diet, initial trial",about the same as the control group
same,EPM grade after treatment,"Sarcocystis neurona; Case 1 Chris, from Grade 3, lipid encapsulated paste, oral daily, 28 dosings, 25 gm/syringe",0/1
same,EPM grade after treatment,"Sarcocystis neurona; Case 2 Brooke, started at Grade 2, day 29, about 50 mg/Kg or 25 gm/day oral",2 grade
same,EPM grade after treatment,"Sarcocystis neurona; Case 3 Foundation Man, from Grade 2/3, 28 day oral treatment",0 Grade
same,recovery from EPM,"Sarcocystis neurona; all three horses, owners' reports, day 84",fully recovered
same,side effects,"Sarcocystis neurona; in vivo, po",no side effects
same,thickening of the nail caused by fungal growth,fungal growth,disappeared
same,solubility in methanol,[1]; bulk drug,sparingly soluble
same,solubility in methylene chloride and dimethylforamide,[1]; bulk drug,more soluble
same,solubility in water,[1]; bulk drug,insoluble
same,stability on heating in organic solvents,"[1]; methanol, acetone, methylene chloride, dimethylforamide at 60–80° C.",no appreciable detriment
same,projected therapeutic range,HCMV,1.5 to 2.5 µg/mL
same,plaques,"HCMV; 1.5 μg/mL, controls 300 plaques",3
same,plaques,"HCMV; 2.5 μg/mL, controls 300 plaques",1
same,plaques,HCMV; higher drug concentrations (5 and 50 μg/mL),none
"CC(=O)Oc1ccccc1C(=O)Nc1ncc([N+](=O)[O-])s1 [NTZ, Nitazoxanide]",expiry of bulk drug,[2],two
same,adverse effects in horses,[3],"causes anorexia, depression and diathermia or loose stool"
same,stability in water,"[4]; standing in water, room temperature",converted to the deacetylated counterpart
same,solubility in water,[4]; water,sparingly soluble
same,optical density,[5],1.9
same,plaques,"HCMV; all four drug concentrations (1.5, 2.5, 5, 50 μg/mL), control 310 plaques",no viral plaques
CC(=O)Oc1ccccc1C(=O)O [aspirin],hydrolyzed to salicylic acid (degraded),[6],roughly 38%
